Data reported in US20260115162A1, “COMPOSITION OR ASSOCIATION OF COMPOUNDS PREFERABLY FOR USE IN THE TREATMENT OF NERVOUS DISEASES IN PARTICULAR NEURODEGENERATIVE DISEASES, METHOD FOR THE PREPARATION OF SUCH COMPOSITION OR ASSOCIATION OF COMPOUNDS AND USES THEREOF” (PHARMACEUTICA SAN MARCO S.R.L., priority 2022, published 2026).

How the values were obtained:
Type in all cases: in vivo
[1] = Plasma and brain levels of βBA and AKBA via os in mice (Gerbeth K et al. 2013)
Description: βBA appears not to undergo blood-brain barrier. According to the data of Gerbeth K et al. 2013, brain levels of AKBA were very low, resulting 0.4 per AKBA in the brain/plasma ratio (but 0.81 according to Weber C C et al. 2006). In contrast, the § BA concentration in the brain was even higher than that found in the blood with 32% increase (See Table 1).

[2] = system: serotonin (5-HT); assay: Serotonin (5-HT) levels in mice treated with Aβ icv (FIG. 5a)
Experimental: (§1) The Aβ1-42, obtained from Tocris (Bristol, UK), was dissolved in sterile double-distilled pyrogenic-free water, as vehicle, to obtain a final concentration 4 μM [Colaianna M et al. 2010]. Mice were anesthetized with a solution (0.85 in ml/kg, i.p.), containing ketamine (Sigma Aldrich, Milan, Italy, 100 mg/10 ml), xylazine (Sigma Aldrich, Milan, Italy, 100 mg/10 ml) and acepromazine (prequillant, ATI Azienda Terapeutica Veterinaria Srl, 10 mg/10 ml) dissolved in saline solution. […] At the time of dissection, the correct needle track was assessed. […]
All behavioral experiments were conducted at 5 or 30 min after sublingual administrations of βBA or vehicle in mice treated with SHAM or AP. Based on the observed behavioral results, neurochemical and biochemical quantifications were performed 30 min after administration of βCP, FE, and βBA or vehicle in SHAM- or Aβ-treated mice. […]
5-HT, noradrenaline (NA), and KYN levels were measured in the PFC and HIPP of mice by HPLC coupled with an electrochemical detector (Ultimate ECD, Thermo Scientific Dionex, Milan, Italy) as already reported [Francavilla M et al. 2012, Morgese M G et al. 2016]. […] GLU concentrations were determined by HPLC coupled with fluorescence detection (emission length 460 nm; excitation length 340 nm), as previously published [Francavilla M et al. 2012]. […]

[3] = system: synaptophysin; assay: Synaptophysin in PFC and HIPP of mice treated with Aβ icv, Western blotting (FIG. 11); settings: after 7 days
Experimental: The βCP, FE, βBA and HA4 influence on prefrontal and hippocampal synaptic plasticity was evaluated using anti-PSD-95, anti-synaptophysin, anti-CaMKII antibodies.
as §1
The total amount of proteins was measured in homogenates by using Pierce BCA Assay (Thermo Fisher Scientific, Cleveland, OH, USA). […] After HRP-conjugated specific antibody incubation, ECL reagent (Bio-Rad Laboratories Inc., Segrate (MI), Italy) was added to the immune complex and chemiluminescence was detected by ChemiDoc MP system (Bio-Rad Laboratories Inc., Segrate (MI), Italy). Optical densities of the bands were measured using Image J software (http://rsb.info.nih.gov/ij/ accessed on 15 Mar. 2021) and normalized against bands relative to -actin (1:5,000, Abcam, Cambridge, UK).

[4] = system: mice treated with Aβ icv; assay: Splash test in SHAM mice and mice treated with Aβ icv (FIG. 4); settings: after 7 days, HA4 200 μg, βCP 50 μg, βBA 100 μg, FE 50 μg sublingually
Experimental: as §1
Ten μl of the solution (or vehicle alone) were administered sublingually to mice. Brain βCP, FE e βBA were quantified in a separate subset of mice at 5, 15 and 30 min after their administration.
All behavioral experiments were conducted at 5 or 30 min after sublingual administrations of βBA or vehicle in mice treated with SHAM or AP. Based on the observed behavioral results, neurochemical and biochemical quantifications were performed 30 min after administration of βCP, FE, and βBA or vehicle in SHAM- or Aβ-treated mice.
Splash test. […] The test was videotaped and later an observer, blind to the trial, scored for latency to the first grooming event and duration of self-care behavior during the period of the test (5 min).

## C[C@H]1[C@H](C)CC[C@]2(C)CC[C@]3(C)C(=CC[C@@H]4[C@@]5(C)CC[C@@H](O)[C@](C)(C(=O)O)[C@@H]5CC[C@]43C)[C@H]12 [βBA, β-boswellic acid]
[1]
  Δos/brain: 26
  Δos/plasma: 39
  Δplasma/brain: 0.68
[1]; Table 1
  increase of concentration in the brain over that in the blood: 32%
[2]
  Serotonin (5-HT) levels: progressively greater serotonergic activity
[3]
  synaptophysin tissue concentration: remove Ap-induced alterations
[4]
  Splash test latency time (antidepressant effect): antidepressant effect
